Several values for one entry are separate records, joined by “and”; a condition that tells them apart may be missing. Equal entries are not always repeated. Entries after “also recorded” stand apart in the source; their conditions may differ.
Legend:
[1] = Population pharmacokinetic model (Phoenix NLME, FOCE-ELS) of yimitasvir in Chinese healthy volunteers and HCV infection patients; type: in vivo, human
Protocol: (§1) The current population PK analysis of yimitasvir was performed using rich and sparse PK samples collected from six clinical pharmacology trials [4 phase 1 ([Zhao et al., 2019]), 1 phase 1b ([Zhang et al., 2018]) and 1 phase 2 studies] in Chinese healthy volunteers and HCV-infected patients. Rich sampling entailed serial blood sampling at defined time points, and sparse sampling (single sample) only in phase 2 study entailed blood collection at every study visits. Patients with genotype 1 HCV infection were eligible, while patients with prior use of direct-acting antiviral agents (DAA) for HCV infection treatment were excluded in phase 1b and phase 2 studies.
A fully validated liquid chromatography-tandem mass spectrometry (LC-MS/MS) method determining yimitasvir concentration in phase 1 and phase 1b studies had been reported elsewhere ([Zhang et al., 2018]; [Zhao et al., 2019]).
Plasma concentration of yimitasvir in phase 2 study was analyzed using a validated LC-MS/MS method equipped with a Shimadzu LC-30AD liquid chromatography-SCIEX API6500 mass spectrometer. Chromatographic retention and separation were achieved on a XBridge Peptide BEH C18, 50 × 2.1 mm, 3.5 μm column. Gradient elution was used with 2 mM ammonium acetate in water with 0.1% formic acid as mobile phase A and acetonitrile:methanol (30:70, v:v) as mobile phase B at a flow rate of 0.5 ml min^−1. The column temperature was maintained at 45°C. Quantitation was accomplished in positive mode with precursor-to-production pairs of m/z 428.5→315.3 for yimitasvir and m/z 432.5→319.5 for the internal standard d8-DAG (isotope-labelled yimitasvir), respectively.
Population pharmacokinetic analysis of yimitasvir was performed by Phoenix NLME software (Version 8.1, Certara) using the first-order conditional estimation-extended least squares (FOCE-ELS) method.
The structural model was first tested by fitting a one-compartment or two-compartment model to the log-transformed PK data. Different absorption models including first-order absorption with or without a lag time, sequential zero-first order absorption, transit absorption and saturable Michaelis-Menten absorption model, were also tested. The optimal structural model was selected based on the Akaike Information Criteria (AIC), minimization success, visual inspection of goodness-of-fit plots and individual fit.
Inter-subject variability was estimated by exponential model for PK parameters as follows (Eq. 1): θi=θTV×e^ηi, (1) where θi is the parameter estimation for the ith individual, θTV is the typical value of the parameter estimation in the population, ηi is a random variable which assumed to be normally distributed with a mean of 0 and a variance of ω^2. Proportional error model and proportional plus additive error model were tested as residual error models.
Sigmoidal maximum effect (Emax) (Eq. 2) and linear models (Eq. 3) were tested to quantify the relationship between bioavailability and dose: {F=θF ,Dose≤100 mgF=θF−Fmax×(Dose−100)/(F50+(Dose−100)),Dose>100 mg, (2) where θF is the bioavailability in individuals who received ≤100 mg yimitasvir, which was fixed to 1. Fmax is the maximal reduction in bioavailability and F50 is the dose associated with a half-maximal reduction in bioavailability. {F=θF ,Dose≤100 mgF=θF −Alpha×(Dose−100)/100,Dose>100 mg, (3) where Alpha is a slope term determining the relative change in bioavailability for each 100 mg increase in yimitasvir dose.
Subsequently, different covariates were tested using a stepwise forward inclusion [a decrease in objective function value (OFV) of > 6.63, p < 0.01] and a stricter backward exclusion procedure (an increase in OFV of > 10.83, p < 0.001). […]

[2] = test system: CYP 2D6; conditions: cited from earlier work
[3] = cited from earlier work
[4] = test system: chronic HCV genotype 1 infection; test: Phase 2 study of yimitasvir with sofosbuvir in patients with chronic HCV infection; type: in vivo, human; conditions: for Adverse reaction rate: with 400 mg sofosbuvir
Protocol: In phase 2 study, yimitasvir 100 or 200 mg was administered once daily for 12 weeks in combination with 400 mg sofosbuvir in patients with chronic HCV infection. […] The primary endpoint of phase 2 study was sustained virologic response [HCV RNA less than lower limit of quantification (LLOQ)] 12 (SVR12) weeks after the completion of treatment. SVR12 rates were achieved 100% in both 100 mg yimitasvir/400 mg sofobuvir and 200 mg yimitasvir/400 mg sofobuvir groups. […] The most common adverse reactions were neutropenia (3.9%), leukopenia (3.1%), hypercholesterolemia (3.1%) and fatigue (3.1%).
as §1

[5] = final model estimate (RSE%), food = 2, high-fat meal
[6] = 100 or 200 mg with 400 mg sofosbuvir

With `COC(=O)NC(C(=O)N1CCCC1c1ncc(-c2ccc(-c3ccc(-c4ccc5nc(C6CCCN6C(=O)C(NC(=O)OC)C(C)C)[nH]c5c4)c4c3C3CCC4C3)cc2)[nH]1)C(C)C` (centres unmarked) [yimitasvir] the “Relative bioavailability of 200 mg to 100 mg” value ([1]; according to the final model) was 87.1%, the “Relative bioavailability of 400 mg to 100 mg” value ([1]; according to the final model) was 61.3% and the “CL/F ∼ ALT (covariate coefficient, power)” value ([1]; bootstrap mean) was −0.0955 (−15.3). The “CL/F ∼ Female (covariate coefficient)” value ([1]; bootstrap mean) was −0.250 (−14.6), the “F ∼ Food1 (covariate coefficient)” value ([1]; bootstrap mean) was −0.312 (−34.9) and the “F ∼ Food2 (covariate coefficient)” value ([1]; bootstrap mean) was −0.473 (−19.8). The “Ka ∼ Food1 (covariate coefficient)” value ([1]; bootstrap mean) was −1.72 (−10.5), the “Ka ∼ Food2 (covariate coefficient)” value ([1]; bootstrap mean) was −2.43 (−7.4) and the “Random effect CL/F (inter-individual variability)” value ([1]; bootstrap mean) was 0.483 (5.8). The “Random effect CL/F ∼ V1/F (covariance)” value ([1]; bootstrap mean) was 0.562 (8.1), the “Random effect V1/F (inter-individual variability)” value ([1]; bootstrap mean) was 0.729 (11.0) and the “Residual error σ (proportional)” value ([1]; bootstrap mean) was 0.304 (3.4). The “Td ∼ Patient (covariate coefficient)” value ([1]; bootstrap mean) was −0.403 (−27.9), the CL/F ([1]; bootstrap mean (n = 1,000)) was 13.8 (3.7) l h^−1 and the Ka ([1]; bootstrap mean (n = 1,000)) was 1.38 (13.7) h^−1. For the same compound, the Q/F ([1]; bootstrap mean (n = 1,000)) was 4.04 (16.8) l h^−1, the Td ([1]; bootstrap mean (n = 1,000)) was 2.22 (7.2) h and the V1/F ([1]; bootstrap mean (n = 1,000)) was 189 (5.6) l. For the same compound, the V2/F ([1]; bootstrap mean (n = 1,000)) was 59.1 (9.1) l, the “Effect of age and BW on PK properties” value ([1]; covariate screening) was “no effect” and the “Decrease of bioavailability (F) for each 100 mg dose increase” value ([1]; dose > 100 mg, linear model) was 12.9%. For the same compound, the “Covariance of inter-individual variability of CL/F and V1/F” value ([1]; final model) was 56.5%, the “Inter-individual variability for CL/F” value ([1]; final model) was 48.5% and the “Inter-individual variability for V1/F” value ([1]; final model) was 73.6%. The “CL/F ∼ Female (covariate coefficient)” value ([1]; final model estimate (RSE%)) was −0.251 (−14.2), the Q/F ([1]; final model estimate (RSE%)) was 3.96 (14.7) l h^−1 and the “Random effect CL/F (inter-individual variability)” value ([1]; final model estimate (RSE%)) was 0.485 (3.8). The “Random effect CL/F ∼ V1/F (covariance)” value ([1]; final model estimate (RSE%)) was 0.565 (5.1), the “Random effect V1/F (inter-individual variability)” value ([1]; final model estimate (RSE%)) was 0.736 (6.9) and the “Residual error σ (proportional)” value ([1]; final model estimate (RSE%)) was 0.305 (0.7). For the same compound, the “Td ∼ Patient (covariate coefficient)” value ([1]; final model estimate (RSE%)) was −0.416 (−10.7), the V2/F ([1]; final model estimate (RSE%)) was 58.6 (6.9) l and the “CL/F ∼ ALT (covariate coefficient, power)” value ([1]; final model estimate (RSE%), baseline ALT normalised to median) was −0.0950 (−21.2). For the same compound, the Ka ([1]; final model estimate (RSE%), first-order absorption rate, typical healthy male volunteer, ALT 31.6 IU l^−1, fasted) was 1.31 (7.2) h^−1, the “Ka ∼ Food1 (covariate coefficient)” value ([1]; final model estimate (RSE%), food = 1, evening, fasted at least 4 h after dinner) was −1.71 (−5.5) and the “F ∼ Food1 (covariate coefficient)” value ([1]; final model estimate (RSE%), food = 1, fasted at least 4 h) was −0.341 (−26.3). For the same compound, the “F ∼ Food2 (covariate coefficient)” value [1, 5] was −0.485 (−31.2), the “Ka ∼ Food2 (covariate coefficient)” value [1, 5] was −2.40 (−3.7) and the “Td (duration of zero-order absorption)” value ([1]; final model estimate (RSE%), healthy volunteers) was 2.17 h and 2.17 (4.4) h. The “CL/F (apparent oral clearance)” value ([1]; final model estimate (RSE%), typical healthy male volunteer, ALT 31.6 IU l^−1, fasted) was 13.8 l h^−1 and 13.8 (4.1) l h^−1, the “Higher CL/F in male subjects than females” value ([1]; human, in vivo) was 22.2% and the Vd/F ([1]; human, plasma, oral, final model estimate (RSE%), typical healthy male volunteer, ALT 31.6 IU l^−1, fasted, read-out: V1/F (central volume of distribution)) was 188 L. For the same compound, the “Zero-order absorption duration (Td)” value ([1]; patients) was 1.43 h, the “Decrease of F by high-fat meal” value ([1]; vs fasted) was 38.5% and the “Decrease of Ka by high-fat meal” value ([1]; vs fasted) was 90.9%. The “Inhibition of CYP2D6” value [2] was “does not inhibit”, the Solubility profile [3] was “pH-dependent solubility profile” and the Adverse reaction rate ([4]; 100 mg group) was 35.9%. For the same compound, the SVR12 rate ([4]; 100 mg yimitasvir/400 mg sofosbuvir once daily for 12 weeks) was 100%, the Adverse reaction rate ([4]; 200 mg group) was 36.9% and the SVR12 rate ([4]; 200 mg yimitasvir/400 mg sofosbuvir once daily for 12 weeks) was 100%. For the same compound, the “Effect of co-medication of sofosbuvir on PK profile” value ([4]; 400 mg sofosbuvir) was “did not affect; also recorded: not affected by co-medication of sofosbuvir”, the “Adverse reaction: fatigue” value [4, 6] was 3.1% and the “Adverse reaction: hypercholesterolemia” value [4, 6] was 3.1%. For the same compound, the “Adverse reaction: leukopenia” value [4, 6] was 3.1%, the “Adverse reaction: neutropenia” value [4, 6] was 3.9% and the “Severity of adverse reactions” value ([4]; most common adverse reactions) was “grade 1 or 2; also recorded: grade one or two”. The “Dose proportionality of exposure” value ([4]; patients, 100 or 200 mg with 400 mg sofosbuvir) was “Less than dose proportionality” and the “SVR12 rate (primary endpoint)” value ([4]; phase 2 study overall, taken at least 2 h before or after a meal in most patients) was 100%.

Source: publication PMC7876056, “Population Pharmacokinetic Analysis of Yimitasvir in Chinese Healthy Volunteers and Patients With Chronic Hepatitis C Virus Infection” (Frontiers in Pharmacology, 2021)
